Results as given in patent US20230414735A1, “NEOANTIGENS AND METHODS OF THEIR USE” (priority 2016, published 2023).
Like-named read-outs stand apart in the source and are kept apart here. Where no end group is shown, it is not given here.

Legend:
HLA class I molecule = experiment: HLA class I peptide binding affinity assay (inhibition of 125I-radiolabeled probe peptide binding to purified HLA); parameters: species or system human; conditions: read-out: Observed Affinity (IC50, (nM))
Method: Epstein-Barr virus (EBV)-transformed homozygous cell lines, fibroblasts, CIR, or 721.22 transfectants are used as sources of HLA class I molecules. […] HLA molecules are purified from lysates by affinity chromatography. The lysates are passed over a column of Sepharose CL-4B beads coupled to an appropriate antibody. […] A 1/25 volume of 2.0 M Tris, pH 6.8, is added to the eluate to reduce the pH to […]. Eluates are then concentrated by centrifugation in Centriprep 30 concentrators (Amicon, Beverly, MA). Protein content is evaluated by a BCA protein assay (Pierce Chemical Co., Rockford, IL) and confirmed by SDS-PAGE.
Following incubation, MHC-peptide complexes are separated from free peptide by gel filtration on 7.8 mm×15 cm TSK200 columns (TosoHaas 16215, Montgomeryville, PA). Because the large size of the radiolabeled peptide used for the DRB1*1501 (DR2w2(31) assay makes separation of bound from unbound peaks more difficult under these conditions, all DRB1*1501 (DR2w2(31) assays were performed using a 7.8 mm×30 cm TSK2000 column eluted at 0.6 mLs/min. The eluate from the TSK columns is passed through a Beckman 170 radioisotope detector, and radioactivity is plotted and integrated using a Hewlett-Packard 3396A integrator, and the fraction of peptide bound is determined.
Radiolabeled peptides are iodinated using the chloramine-T method. […] All subsequent inhibition and direct binding assays are performed using these HLA concentrations.
Since under these conditions [label]<[HLA] and IC50≥[HLA], the measured IC50 values are reasonable approximations of the true KD values. […] For database purposes, and inter-experiment comparisons, relative binding values are compiled. These values can subsequently be converted back into IC50 nM values by dividing the IC50 nM of the positive controls for inhibition by the relative binding of the peptide of interest.
HLA binding assays were used to evaluate either the affinity of interaction of a given epitope with a selected HLA molecule or the stability.
The measurements are plotted against the predicted affinity in FIG. 1.

HLA Class I molecules = experiment: HLA class I binding stability assay (pMHC-I complex dissociation, 125I-labeled β2m, scintillation counts); parameters: species or system human
Method: These reactions are carried out in streptavidin coated microplates to bind th biotinylated MHC-I heavy chains to the surface and allow measurement of radiolabeled light chain to monitor complex formation. Dissociation is initiated by addition of higher concentations of unlabled light-chain and incubation at 37° C. Stability is defined as the length of time in hours it takes for half of the complexes to dissociate, as measured by scintillation counts

Molecule | IC50 (HLA class I molecule; allele A02.01) [nM] | further results
VVPLCDLLL | 1200 | –
FFFSVIFST | 4560 | –
ITAFFFCWI | 7490 | –
CC[C@H](C)[C@H](NC(=O)[C@@H]1CCCN1C(=O)[C@H](CC(C)C)NC(=O)[C@H](Cc1ccccc1)NC(=O)[C@H](CC(C)C)NC(=O)[C@H](CO)NC(=O)[C@H](CC(=O)O)NC(=O)[C@@H](NC(=O)[C@H](CC(C)C)NC(=O)[C@@H](N)CCSC)[C@@H](C)O)C(=O)O | – | Stability (T1/2 (h)) (HLA Class I molecules; allele A02.01, 37° C.): 1 h
CC[C@H](C)[C@H](NC(=O)[C@H](CCCCN)NC(=O)[C@H](CO)NC(=O)[C@H](CCC(=O)O)NC(=O)[C@H](C)NC(=O)[C@H](CCCCN)NC(=O)[C@H](CC(C)C)NC(=O)[C@H](Cc1ccccc1)NC(=O)[C@H](CCSC)NC(=O)[C@@H](N)Cc1ccc(O)cc1)C(=O)O | – | Stability (T1/2 (h)) (HLA Class I molecules; allele A02.01, 37° C.): 0.6 h; Stability (T1/2 (h)) (HLA Class I molecules; allele B08.01, 37° C.): 0.4 h
CC(C)C[C@H](NC(=O)[C@@H](N)Cc1ccccc1)C(=O)N[C@@H](CCC(N)=O)C(=O)N[C@@H](CCC(=O)O)C(=O)N[C@@H](CCC(N)=O)C(=O)N[C@@H](Cc1ccc(O)cc1)C(=O)N[C@@H](Cc1c[nH]cn1)C(=O)N[C@@H](CCC(=O)O)C(=O)N[C@@H](C)C(=O)O | – | Stability (T1/2 (h)) (HLA Class I molecules; allele A02.01, 37° C.): 9.5 h
NVVPLSDLLL | 741 | –
ILDTAGHEEY | – | IC50 (HLA class I molecule; allele A01.01): 64.2 nM
LLDILDTAGL | 716 | –
YITAFFLLDI | 64.5 | –
NVVPLNDLLL | 4190 | –
LLPEDTPPL | 2.8 | –
KISNWSLKK | – | IC50 (HLA class I molecule; Allele A11.01): 9.8 nM
IIIEFMTYG | 779 | –
LATEKSRWS | 61000 | IC50 (HLA class I molecule; allele B08.01): 37000 nM
FLSSWDYRRM | 324 | –
PLNDLLLEML | 12000 | –
CSCC[C@H](NC(=O)[C@H](CCC(=O)O)NC(=O)[C@H](CCCNC(=N)N)NC(=O)[C@H](CC(C)C)NC(=O)[C@H](Cc1ccc(O)cc1)NC(=O)[C@H](CC(N)=O)NC(=O)[C@H](CC(C)C)NC(=O)[C@H](CC(C)C)NC(=O)[C@@H](N)CO)C(=O)O | – | Stability (T1/2 (h)) (HLA Class I molecules; allele A02.01, pMHC-I dissociation at 37° C.): 3 h
IIEYCFYGDL | 1090 | –
MNWRPILTI | – | Stability (T1/2 (h)) (HLA Class I molecules; allele A02.01, 37° C.): 3.8 h
CC[C@H](C)[C@H](NC(=O)[C@@H]1CCCN1C(=O)[C@H](CCCNC(=N)N)NC(=O)[C@H](Cc1c[nH]c2ccccc12)NC(=O)[C@H](CC(N)=O)NC(=O)[C@H](CCSC)NC(=O)CNC(=O)CNC(=O)[C@H](CCSC)NC(=O)[C@@H](N)CS)C(=O)O | – | Stability (T1/2 (h)) (HLA Class I molecules; allele A02.01, 37° C.): 0.4 h

Molecule | IC50 (HLA class I molecule; allele A02.01) [nM] | further results
QLIMQLMPFG | 5930 | –
CC(C)C[C@H](N)C(=O)N[C@H](C(=O)N[C@H](C(=O)N[C@H](C(=O)NCC(=O)N[C@@H](C)C(=O)N[C@H](C(=O)NCC(=O)N[C@H](C(=O)O)C(C)C)C(C)C)C(C)C)C(C)C)C(C)C | – | Stability (T1/2 (h)) (HLA Class I molecules; allele A02.01, 37° C.): 0.6 h
PLYGLLLEML | 797 | –
QQQSDLQPPA | 646 | –
ILDTAGLEEY | – | IC50 (HLA class I molecule; allele A01.01): 8.6 nM
CC(C)C[C@H](NC(=O)[C@H](CO)NC(=O)[C@H](CS)NC(=O)[C@H](CCC(=O)O)NC(=O)[C@H](Cc1c[nH]c2ccccc12)NC(=O)[C@H](CC(C)C)NC(=O)[C@H](C)NC(=O)[C@H](CC(C)C)NC(=O)[C@H](CC(C)C)NC(=O)[C@@H](N)Cc1ccccc1)C(=O)O | – | Stability (T1/2 (h)) (HLA Class I molecules; allele A02.01, 37° C.): 10.8 h
LLGRNSFEVC | 2080 | –
QTGVMICAYL | 9760 | –
SLKKVPALK | – | IC50 (HLA class I molecule; Allele A11.01): 129 nM
ILMELMAGGD | 3450 | –
CC[C@H](C)[C@H](N)C(=O)N[C@H](C(=O)N[C@H](C(=O)N[C@@H](CCC(=O)O)C(=O)N[C@@H](Cc1ccccc1)C(=O)N[C@@H](CCSC)C(=O)N[C@H](C(=O)N[C@@H](Cc1ccc(O)cc1)C(=O)NCC(=O)N[C@@H](CC(N)=O)C(=O)O)[C@@H](C)O)[C@@H](C)CC)[C@@H](C)CC | 1550 | –
ILLPEDTPPL | 6.7 | –
IMSLWGLVS | 7320 | –
HMNIANLLGA | 430 | –
VMSDTTYKI | 19.6 | –
LQEFDVQEAL [LQEFDVQEAL] | 50300 | –
NVVPLNDLL | 2900 | –
FALCGFWQI | 0.4 | –
GMNQRPILT | 3030 | –
QQSDLQPPA | 70 | –
FFFETKSCSV | 61.2 | –

Molecule | IC50 (HLA class I molecule; allele A02.01) [nM] | further results
TGSNEVTTRY | – | IC50 (HLA class I molecule; allele A01.01): 15500 nM
KITEQEKDFL | 1400 | –
YTTNAFSGEY | – | IC50 (HLA class I molecule; allele A01.01): 10.5 nM
IANLLGACTI | 6420 | –
ITAFFLLDI | 78.7 | –
YLGNHMNIAN | 1340 | –
SAMTTSSSQK | – | IC50 (HLA class I molecule; Allele A11.01): 15.8 nM
GLSISCTTL | 114 | –
RLWHLLLQV | 1.3 | –
CC[C@H](C)[C@H](N)C(=O)N[C@@H](CC(C)C)C(=O)N[C@@H](CC(=O)O)C(=O)N[C@H](C(=O)N[C@@H](C)C(=O)NCC(=O)N[C@@H](CCCCN)C(=O)N[C@@H](CCC(=O)O)C(=O)N[C@@H](CCC(=O)O)C(=O)N[C@@H](Cc1ccc(O)cc1)C(=O)O)[C@@H](C)O | – | IC50 (HLA class I molecule; allele A01.01): 14.3 nM
NVVPLSDLL | 916 | –
ALAPTLTHML | 39 | –
TQISSATEYL | 2640 | –
FKLFSCLSFL | 663 | –
NVVPLCDLL | 3030 | –
FELLPIPPL | 553 | –
ALMSAMTTS | 139 | –
NVVPLYGLL | 10500 | –
YLTKWPKFFL | 42.9 | –
